US20240299401A1, “NOVEL REDOX-BASED THERAPEUTIC APPROACH FOR TREATMENT OF CANCER” (THE PENN STATE RESEARCH FOUNDATION, priority 2020, published 2024)
“Also recorded” adds a separate entry of the source. Where two headings read alike, the source gives them in different places.

Tests used:
AML193 = experiment: WST-1 cytotoxicity, AML193; format: cell-based; conditions: Homo sapiens; AML193; alone; 24 h; read-out: Calculated IC50 values
Method: (§1) Two different cytotoxicity/proliferation kit was used in this study i.e., WST-1 proliferation assay kit (Roche, Indianapolis, IN, USA; Cat #28620000) and Cell-titer Glo-luminescent cell viability assay (Promega, WI, USA; Cat #0000348721). Majority of the cell proliferation/cytotoxicity experiments were performed with WST-1 assay. Briefly, cells were seeded at the indicated density for 24 h in 96 well plate, media was replaced, and subsequently treated with the test compounds at different doses. […] Cell titer Glo-assay was additionally performed in certain cases to validate the results from WST-1 assay as outlined above following manufacturer's instructions and luminescence was measured using a FLx100 Luminometer (CLARIOSTAR®, Ortenbery, Germany). […] Other proliferation/cytotoxicity assays were also carried out i.e., Quant™-iT PicoGreen ds DNA assay kit (Thermo Scientific, Rockwood, TN, USA, P7589) following manufacturer's instructions, Trypan blue (Sigma, Ayrshire, UK, T8154) and acid phosphatase assay for validation of cytotoxicity/proliferation data from other assays.

Hep3B = experiment: WST-1 cytotoxicity, Hep3B; format: cell-based; conditions: Homo sapiens, alone, 24 h, read-out: Calculated IC50 values
Method: as §1

HeLa = experiment: WST-1 cytotoxicity, HeLa; format: cell-based; conditions: Homo sapiens, alone, 24 h, read-out: Calculated IC50 values
Method: as §1

IGROV1 = experiment: WST-1 cytotoxicity, IGROV1; format: cell-based, human; conditions: IGROV1; alone; 24 h; dose up to 200 μM
Method: as §1

A549 = experiment: WST-1 cytotoxicity, A549; format: cell-based, human; conditions: Homo sapiens
Method: as §1

LS174T = experiment: WST-1 cytotoxicity, LS174T; format: cell-based; conditions: Homo sapiens, alone, 24 h, read-out: Calculated IC50 values
Method: as §1

H1299 = experiment: WST-1 cytotoxicity, H1299; format: cell-based, human; conditions: Homo sapiens, NCI-H1299
Method: as §1

NB4 = experiment: WST-1 cytotoxicity, NB4; format: cell-based, human; conditions: Homo sapiens, NB-4
Method: as §1

[1] = Reported oral administration of selenocystine in humans; format: in vivo, human; conditions: assuming 15% of 100 mg daily dose bioavailable, blood volume 5 L
SHSY5-SY = experiment: WST-1 cytotoxicity, SHSY5-SY; format: cell-based; conditions: Homo sapiens; SHSY5-SY; alone; 24 h; read-out: Calculated IC50 values
Method: as §1

[2] = system: Primary Human hepatocytes; experiment: WST-1 cytotoxicity, primary human hepatocytes; conditions: Hepatocyte, 24 h, read-out: Calculated IC50 values
HUH7 = experiment: WST-1 cytotoxicity, HUH7; format: cell-based; conditions: Homo sapiens, Huh-7; HUH7; alone; 24 h; read-out: Calculated IC50 values
Method: as §1

U1906E = experiment: WST-1 cytotoxicity, U1906E; format: cell-based; conditions: Homo sapiens; U1906E; alone; 24 h; read-out: Calculated IC50 values
Method: as §1

THP-1 = experiment: WST-1 cytotoxicity, THP-1; format: cell-based; conditions: Homo sapiens; THP-1; alone; 24 h; read-out: Calculated IC50 values
Method: as §1

H661 = experiment: WST-1 cytotoxicity, H661; format: cell-based, human; conditions: Homo sapiens, NCI-H661, 24 h
Method: as §1

[3] = system: Primary peripheral blood mononuclear cells; experiment: WST-1 cytotoxicity, primary PBMCs; conditions: Homo sapiens, PBMC, 24 h, read-out: Calculated IC50 values
[4] = Toxicity in black mice (C57BL/6), 3 weeks; format: in vivo; conditions: sodium selenite or selenocystine 3 mg/kg, alone or with diphenyl diselenide 50 and 100 mg/kg
Method: Black mice (C57BJ/6) mice were treated perorally every second day with either vehicle (canola oil) or diphenyl diselenide at two different dose levels (50 and 100 mg/kg body weight) for 3 weeks. Final body weight and weight of the major organs were measured at necropsy.
Black mice (C57BJ/6) mice were treated with vehicle (PBS i.p. and canola oil p.o.), sodium selenite (3 mg/kg body weight), selenocystine (3 mg/kg body weight), or in combinations with two different doses of diphenyl diselenide (50 and 100 mg/kg body weight) for 3 weeks. Final body weight and weight of the major organs were measured at necropsy.

OV2008 = experiment: WST-1 cytotoxicity, OV2008; format: cell-based; conditions: Homo sapiens; OV2008; alone; 24 h; read-out: Calculated IC50 values
Method: as §1

U1906L = experiment: WST-1 cytotoxicity, U1906L; format: cell-based; conditions: Homo sapiens; U1906L; alone; 24 h; read-out: Calculated IC50 values
Method: as §1

PANC-1 = experiment: WST-1 cytotoxicity, PANC-1; format: cell-based; conditions: Homo sapiens; PANC-1; alone; 24 h; read-out: Calculated IC50 values
Method: as §1

MCF-7 = experiment: WST-1 cytotoxicity, MCF-7; format: cell-based, human; conditions: Homo sapiens
Method: as §1

SNB-19 = experiment: WST-1 cytotoxicity, SNB-19; format: cell-based; conditions: Homo sapiens; SNB-19; alone; 24 h; read-out: Calculated IC50 values
Method: as §1

[5] = orally, 50-200 mg/day for 49 days; human; cited from earlier work
8-MGBA = experiment: WST-1 cytotoxicity, 8-MGBA; format: cell-based; conditions: Homo sapiens, 8-MG-BA; 8-MGBA; alone; 24 h; read-out: Calculated IC50 values
Method: as §1

HepG2 = experiment: WST-1 cytotoxicity, HepG2; format: cell-based; conditions: Homo sapiens; HepG2; alone; 24 h; read-out: Calculated IC50 values
HL60 = experiment: WST-1 cytotoxicity and synergy analysis, HL60; format: cell-based, human; conditions: Homo sapiens, HL-60
Method: as §1

A375 = experiment: WST-1 cytotoxicity, A375; format: cell-based; conditions: Homo sapiens, A-375; A375; alone; 24 h; read-out: Calculated IC50 values
Method: as §1

[6] = system: splenocytes comprising normal and leukemic cells; experiment: Frequency of normal and leukemic splenocytes by flow cytometry (CD45.1); conditions: 50.0 μM; 67 h
Method: Primary mice leukemic cells (CD45.1 background) bearing human MLL-AF9 oncogene were transplanted into healthy secondary mice (CD45.2 background). Following leukemia development in these mice, spleens were collected following euthanasia. Splenocytes, comprising both normal and leukemic cells, were isolated and cultured ex vivo in 24 well plates (1.5×10^6 cells/0.5 ml/well) for 12 h prior to exposing with the indicated compounds for another 67 h. At the end of the exposure, relative frequency of normal (CD45.1 negative) and leukemic (CD45.1 positive) cells were determined using flow cytometry.

[7] = system: extracellular reduced thiols; experiment: Extracellular thiols measurement (DTDP method); format: cell-based, human
Method: Cell culture media was collected at specified time points after incubation with the respective compounds as described in the respective figure legends and extracellular total thiols were measured using the DTDP method 19. The protocol was adjusted to 96-well plate format. […] Absorbance was measured at 324 nm in a spectrophotometer (PowerWave HT, BioTek, VT, USA). The assay mixture with fresh media was used as a blank.

SLC7A11 = SLC7A11 mRNA expression (qRT-PCR); conditions: HL60 and H1299 cells; listed as DPDS
[8] = system: GSH and CySH in HL60 cells; experiment: Intracellular and extracellular thiols by HPLC; format: cell-based, human; conditions: listed as DPDS
Method: HPLC was performed as described by Luo et al. 21. Samples and standards were derivatized using monobromobimane (Calbiochem, La Jolla, CA) in sodium N-ethylmorpholine. Aliquots of the derivatized samples were filtered using a 0.22 μm Millipore filter. Glutathione (GSH), cysteine (CySH) and g-glutamylcysteine (7-GC) concentrations were then analyzed using high-performance liquid chromatography (HPLC). Both the total and reduced forms were measured. The HPLC separation, of the thiol-bimane adducts, was achieved on a column (4.5×150 mm) packed with 3-μm octadecyl-silica reversed-phase resin (Supelco, Inc., Bellefonte, PA) followed by fluorescent detection at excitation 394 nm and emission 480 nm (Millipore Co., Milford, MA). The system consisted of a Waters 625 LC pump system, a Waters 470 scanning fluorescence detector, and a Waters 717 Ultra WISP sample processor (Millipore, Milford, MA). Elution solvent A was 7.0% aqueous acetonitrile containing 0.25% acetic acid and perchloric acid; the final pH was adjusted to 3.76 with sodium hydroxide. Elution solvent B was 75% acetonitrile. The flow rate was 1.0 ml/min. The derivatives of GSH, CySH and 7-GC were then quantified based on peak areas and compared with standards. The CV for this method is 2.6%.

[9] = system: 23 different human cell lines of multiple cancer origins; experiment: Cytotoxicity across the cancer cell line panel (summary statements); format: cell-based; conditions: 5 μM; cancer cell lines of Table 2
Method: as §1

[10] = system: Primary Human hepatocytes
[11] = system: cystathionine gamma lyase; experiment: RNA-sequencing; format: cell-based; conditions: RNA-sequencing data
H1299 cells = experiment: Cellular total selenium uptake by ICP-MS; format: cell-based, human; conditions: 6 h
Method: H1299 cells were treated with the indicated concentrations of different selenium compounds either alone or in combinations for 6 h. At the end of the treatment, cells were washed 3-times with cold PBS and collected. Cell pellets were digested and the total selenium concentration was measured using ICP-MS. […] Increased selenium delivery to the cells by diphenyl diselenide warrants increased cytotoxicity in cancer cells, as outlined before.

HMOX and NQO1 = experiment: mRNA expression of NFE2L2 target genes; format: cell-based, human; conditions: early time point

Structure (SMILES): N[C@@H](C[Se][Se]C[C@H](N)C(=O)O)C(=O)O [Selenocystine, selenocystine]
- IC50 (AML193): 47 µM
- IC50 (Hep3B): 74.7 µM
- IC50 (HeLa): 5.78 µM
- Calculated IC50 values (IGROV1): Non-toxic*
- IC50 (A549; A549, alone, 24 h, read-out: Calculated IC50 values): 8.7 µM
- IC50 (A549; A549, alone, read-out: Calculated IC50 values of selenocystine): 8.7 µM
- IC50 (LS174T): 3.88 µM
- IC50 (H1299; H1299, alone, 24 h, read-out: Calculated IC50 values): 22.7 µM
- IC50 (H1299; H1299, alone, read-out: Calculated IC50 values of selenocystine): 22.7 µM
- IC50 (NB4; NB4, alone, 24 h, read-out: Calculated IC50 values): 44.1 µM
- IC50 (NB4; NB4, alone, read-out: Calculated IC50 values of selenocystine): 44.1 µM
- maximum plasma concentration (conservative estimation) [1]: 17.8 µM
- IC50 (SHSY5-SY): 115 µM
- IC50 [2]: 300 µM
- IC50 (HUH7): 92.7 µM
- IC50 (U1906E): 2.18 µM
- IC50 (THP-1): 0.92 µM
- IC50 (H661; H661, alone, read-out: Calculated IC50 values): 55.7 µM
- IC50 [3]: 35.4 µM
- toxic effects (body and organ weight at necropsy) [4]: No demonstrated toxic effects could be observed
- IC50 (OV2008): 6.98 µM
- IC50 (U1906L): 17.8 µM
- IC50 (PANC-1): 18.5 µM
- IC50 (MCF-7; MCF7, MCF-7, alone, 24 h, read-out: Calculated IC50 values): 34.9 µM
- IC50 (MCF-7; MCF7, MCF-7, alone, read-out: Calculated IC50 values of selenocystine): 34.9 µM
- IC50 (SNB-19): 78.7 µM
- drug-induced toxic effects [5]: no signs of drug-induced toxic effects were reported
- IC50 (8-MGBA): 49.7 µM
- IC50 (HepG2): 12.4 µM
- IC50 (HL60; HL60, alone, 24 h, read-out: Calculated IC50 values): 22.6 µM
- IC50 (HL60; HL60, alone, read-out: Calculated IC50 values of selenocystine): 22.6 µM
- IC50 (A375): 8.6 µM

Structure (SMILES): c1ccc([Se][Se]c2ccccc2)cc1 [Diphenyl diselenide, diphenyl diselenide]
- IC50 (A549; A549 (Lung), compound alone, 24 h, '>' = dose approximation, read-out: IC50 values): 91.1 µM
- frequency of either normal or leukemic cells [6]: marginal inhibitory effect
- extracellular reduced thiols ([7]; HEK293 ATF4 reporter cells, 5.0 μM): no changes
- extracellular reduced thiols ([7]; all the tested cell lines, H1299 and HL60): highly effective
- IC50 (H1299; H1299 (Lung), compound alone, 24 h, '>' = dose approximation, read-out: IC50 values): 26.2 µM
- IC50 (NB4; NB4 (Leukemia), compound alone, 24 h, '>' = dose approximation, read-out: IC50 values): 39.5 µM
- SLC7A11 expression (SLC7A11): Increased SLC7A11 expression; also recorded: potent inducer
- IC50 (H661; H661 (Lung), compound alone, '>' = dose approximation, read-out: IC50 values): 47.2 µM
- intracellular GSH levels and extracellular CySH levels [8]: increased levels of intracellular GSH; also recorded: increases
- IC50 (MCF-7; MCF7 (Breast), compound alone, 24 h, '>' = dose approximation, read-out: IC50 values): 42.7 µM
- toxicity at the specified dose [9]: non-toxic
- toxicity to normal human cells [10]: non-toxic
- expression of cystathionine gamma lyase [11]: increased
- selenium uptake from sodium selenite or selenocystine (H1299 cells): dramatically increases selenium uptake
- IC50 (HL60; HL60 (Leukemia), compound alone, 24 h, '>' = dose approximation, read-out: IC50 values): 38.4 µM
- expression of HMOX and NQO1 (HMOX and NQO1): significantly induced
